Results on 5 molecules are retold here after ChEMBL document CHEMBL1949670, “Probes for narcotic receptor mediated phenomena. 44. Synthesis of an N-substituted 4-hydroxy-5-(3-hydroxyphenyl)morphan with high affinity and selective μ-antagonist activity” (Eur J Med Chem, 2012).

In one experiment the test system is Mus musculus. In words: Antinociceptive activity in sc dosed mouse. The experiment is classed as functional.
The target of experiment [1] is Mu-type opioid receptor (Homo sapiens) (UniProt P35372). The note with it: CHO.
Sequence of Mu-type opioid receptor (Homo sapiens) (P35372 whole entry): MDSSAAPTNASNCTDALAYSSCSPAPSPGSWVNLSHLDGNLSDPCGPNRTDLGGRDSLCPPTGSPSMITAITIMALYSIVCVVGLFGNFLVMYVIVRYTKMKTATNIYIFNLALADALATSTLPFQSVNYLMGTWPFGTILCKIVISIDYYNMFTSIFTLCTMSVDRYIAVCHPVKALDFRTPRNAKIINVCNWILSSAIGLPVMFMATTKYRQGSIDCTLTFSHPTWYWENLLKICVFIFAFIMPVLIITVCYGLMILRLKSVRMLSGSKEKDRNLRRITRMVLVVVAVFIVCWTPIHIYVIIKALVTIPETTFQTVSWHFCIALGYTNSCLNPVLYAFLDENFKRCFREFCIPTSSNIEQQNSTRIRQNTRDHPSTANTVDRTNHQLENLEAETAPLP
Description: Antagonist activity at human mu receptor expressed in CHO cells membrane assessed as inhibition of DAMGO-induced [35S]GTPgammaS binding after 3 hrs by liquid scintillation counting

For the molecule `CN1CC[C@]23c4c5ccc(O)c4O[C@H]2[C@@H](O)CC[C@@]3(O)[C@H]1C5` [HYDROMORPHINOL], the ED50 in the experiment with Mus musculus was determined as 1.1 mg/kg.
As to `CN1CC2(OCCO2)[C@]2(c3cccc(O)c3)CCC[C@H]1C2` (racemic), in experiment [1], the ED50 came out at 89 nM and the Ke came to 154 nM.
Consider `Oc1cccc([C@@]23CCC[C@@H](C2)N(CCc2ccccc2)C[C@H]3O)c1` (racemic), for which the Ke in experiment [1] is 12 nM.
In turn, `CN1CC[C@]23c4c5ccc(O)c4O[C@H]2[C@@H](O)C=C[C@@]3(O)[C@H]1C5` returned an ED50 in the experiment on Mus musculus of 2.9 mg/kg.
In the experiment with Mus musculus, `CN1CC[C@]23c4c5ccc(O)c4O[C@H]2[C@@H](O)CC[C@H]3[C@H]1C5` [DIHYDROMORPHINE] returned an ED50 of 1.8 mg/kg.
